# Data as given in patent US9133115B2 (ACHILLION PHARMACEUTICALS, INC., priority 2008, dated 2015).
# Tested on: HCV replicon
# Assay: HCV replicon replication assay (NPT ELISA) in Huh-7 replicon-containing cells
# Type: cell-based
# Conditions: Hepatitis C virus, 72 h; HCV replicon in Huh-7 cells, three days incubation; read-out: EC50
# Description: Compounds claimed herein are tested for the ability to inhibit viral replication of the Hepatitis C replicon in cultured cells in which the HCV replicon construct has been incorporated. The HCV replicon system was described by Bartenschlager, et. al (Science, 285, pp. 110-113 (1999)). The replicon system is predictive of in vivo anti-HCV activity; compounds that are active in humans uniformly evidence activity in the replicon assay.
# In this assay HCV replicon containing cells are treated with different concentrations of the test compound to ascertain the ability of the test compound to suppress replication of the HCV replicon. As a positive control, HCV replicon-containing cells are treated with different concentrations of interferon alpha, a known inhibitor of HCV replication. The replicon assay system includes Neomycin Phosphotransferase (NPT) as a component of the replicon itself in order to detect the transcription of replicon gene products in the host cell. Cells in which the HCV replicon is actively replicating have high levels of NPT; the level of NPT is proportional to HCV replication. […] The NPT level of each sample is measured using a captured ELISA.
# A protocol for testing compounds for the ability to inhibit viral replication of the Hepatitis C replicon cultured cells in which the replicon construct has been incorporated, follows.
# The HCV replicon contains, 5′-3′, the HCV-IRES, the neomycin phosphotransferase (neo) gene, the IRES of encephalomyocarditis virus, which directs translation of HCV sequences NS3 to NS5B, and the 3′-NTR. The sequence of the HCV replicon has been deposited in GenBank (Accession no. AJ242652).
# The replicon is transfected into Huh-7 cells using standard methods such as electroporation.
# The equipment and materials include, but are not limited to, Huh-7 HCV replicon-containing cells, maintenance media (DMEM (Dulbecco's modified Eagle media) supplemented with 10% FBS, L-glutamine, non-essential amino acids, penicillin (100 units/ml), streptomycin (100 micrograms/ml), and 500 micrograms/ml of Geneticin (G418), screening media (DMEM supplemented with 10% FBS, L-glutamine, non-essential amino acids, penicillin (100 units/ml) and streptomycin (100 micrograms/ml)), 96 well tissue culture plates (flat bottom), 96 well plates (U bottom for drug dilution), Interferon alpha for positive control, fixation reagent (such as methanol: acetone), primary antibody (rabbit anti-NPTII), secondary antibody: Eu-N1 l, and enhancement solution.
# HCV replicon-containing cells support high levels of viral RNA replicon replication when their density is suitable. Over-confluency causes decreased viral RNA replication. Therefore, cells must be kept growing in log phase in the presence of 500 micrograms/ml of G418. Generally, cells should be passed twice a week at 1: 4-6 dilution. Cell maintenance is conducted as follows:
# HCV replicon-containing cells are examined under a microscope to ensure that cells growing well. Cells are rinsed once with PBS and 2 ml trypsin is added. The cell/trypsin mixture is incubated at 37° C. in a CO2 incubator for 3-5 minutes. After incubation 10 ml of complete media is added to stop the trypsinization reaction. Cells are blown gently, put into a 15 ml tube, and spun at 1200 rpm for 4 minutes. The trypsin/medium solution is removed. Medium (5 ml) is added and the cells are mixed carefully. The cells are counted.
# The cells are then seeded onto 96-well plates at a density of 6000-7500 cells/100 microliters/well (6-7.5×10^5 cells/10 ml/plate). The plates are then incubated at 37° C. in a 5% CO2 incubator.
# Cells are examined under a microscope approximated 24 hours after seeding and prior to adding drugs. If counting and dilution were performed correctly, cells are 60-70% confluent and nearly all cells should attach and spread evenly in the well.
# HCV replicon-containing cells are rinsed with once PBS once; 2 mls of trypsin are then added. Cells are incubated at 37° C. in a 5% CO2 incubator for 3-5 minutes. […]
row,SMILES,EC50 [nM]
1,"C=CC1CC1(NC(=O)[C@@H]1C[C@@H](Oc2cc(-c3ccccc3)nc3cc(OC)ccc23)CN1C(=O)C[C@H](C(=O)N1C(=O)OC[C@@H]1Cc1ccccc1)C(C)(C)C)C(=O)NS(=O)(=O)C1CC1 (stereo partly drawn) [Compound 47, (2S,4R)-1-((S)-3-((S)-4-benzyl-2-oxooxazolidine-3-carbonyl)-4,4-dimethyl-pentanoyl)-N-(1-(cyclopropyl-sulfonylcarbamoyl)-2-vinylcyclopropyl)-4-(7-methoxy-2-phenylquinolin-4-yloxy)pyrrolidine-2-carboxamide]",1000 to 10000
2,"C=C[C@@H]1C[C@]1(NC(=O)[C@@H]1C[C@@H](Oc2cc(-c3ccccc3)nc3cc(OC)ccc23)CN1C(=O)[C@@H](CC(=O)N1CCOCC1)C(C)(C)C)C(=O)NS(=O)(=O)C1CC1 [Compound 48, (2S,4R)-1-((S)-2-tert-butyl-4-morpholino-4-oxobutanoyl)-N-((1R,2S)-1-(cyclo-propylsulfonyl-carbamoyl)-2-vinylcyclopropyl)-4-(7-methoxy-2-phenylquinolin-4-yloxy)pyrrolidine-2-carboxamide]",< 1000
3,"C=C[C@@H]1C[C@]1(NC(=O)[C@@H]1C[C@@H](Oc2cc(-c3ccccc3)nc3cc(OC)ccc23)CN1C(=O)[C@@H](CC(=O)NC1CCCC1)C(C)(C)C)C(=O)NS(=O)(=O)C1CC1 [Compound 49, (2S,4R)-1-((S)-2-tert-butyl-4-(cyclopentylamino)-4-oxobutanoyl)-N-((1R,2S)-1-(cyclopropyl-sulfonylcarbamoyl)-2-vinylcyclopropyl)-4-(7-methoxy-2-phenylquinolin-4-yloxy)pyrrolidine-2-carboxamide]",< 1000
4,"C=CC1CC1(NC(=O)[C@@H]1C[C@@H](OC(=O)N2Cc3cccc(F)c3C2)CN1C(=O)[C@@H](CC(=O)N1CCCCC1)C(C)(C)C)C(=O)NS(=O)(=O)C1CC1 (stereo partly drawn) [Compound 50, (3R,5S)-1-((S)-2-tert-butyl-4-oxo-4-(piperidin-1-yl)butanoyl)-5-(1-(cyclopropyl-sulfonylcarbamoyl)-2-vinylcyclopropyl-carbamoyl)pyr-rolidin-3-yl 4-fluoroisoindoline-2-carboxylate]",< 1000
5,"C=CC1CC1(NC(=O)C1C[C@@H](Oc2cc(-c3ccccc3)nc3cc(OC)ccc23)CN1C(=O)[C@H](CC(=O)N1CCCCC1)CC(C)C)C(=O)NS(=O)(=O)C1CC1 (stereo partly drawn) [Compound 51, (4R)-N-(1-(cyclopropyl-sulfonylcarbamoyl)-2-vinylcyclopropyl)-4-(7-methoxy-2-phenylquinolin-4-yloxy)-1-((S)-4-methyl-2-(2-oxo-2-(piperidin-1-yl)ethyl)pentano-yl)pyrrolidine-2-carboxamide]",1000 to 10000
6,"C=CC1CC1(NC(=O)C1C[C@@H](Oc2cc(-c3ccccc3)nc3cc(OC)ccc23)CN1C(=O)[C@@H](CC(=O)N1CCCCC1)Cc1ccccc1)C(=O)NS(=O)(=O)C1CC1 (stereo partly drawn) [Compound 52, (4R)-1-((R)-2-benzyl-4-oxo-4-(piperidin-1-yl)butanoyl)-N-(1-(cyclopropyl-sulfonylcarbamoyl)-2-vinylcyclopropyl)-4-(7-methoxy-2-phenylquinolin-4-yloxy)pyrrolidine-2-carboxamide]",< 1000
7,"C=CC1CC1(NC(=O)C1C[C@@H](Oc2cc(-c3ccccc3)nc3cc(OC)ccc23)CN1C(=O)[C@@H](CC(=O)N1CCCCC1)C1CCCCC1)C(=O)NS(=O)(=O)C1CC1 (stereo partly drawn) [Compound 53, (4R)-1-((S)-2-cyclohexyl-4-oxo-4-(piperidin-1-yl)butanoyl)-N-(1-(cyclopropyl-sulfonylcarbamoyl)-2-vinylcyclopropyl)-4-(7-methoxy-2-phenylquinolin-4-yloxy)pyrrolidine-2-carboxamide]",< 1000
8,"C=CC1CC1(NC(=O)C1C[C@@H](Oc2cc(-c3ccccc3)nc3cc(OC)ccc23)CN1C(=O)[C@@H](CC(=O)N1CCCCC1)CC1CCCCC1)C(=O)NS(=O)(=O)C1CC1 (stereo partly drawn) [Compound 54, (4R)-1-((R)-2-(cyclohexylmethyl)-4-oxo-4-(piperidin-1-yl)butanoyl)-N-(1-(cyclopropyl-sulfonylcarbamoyl)-2-vinylcyclopropyl)-4-(7-methoxy-2-phenylquinolin-4-yloxy)pyrrolidine-2-carboxamide]",< 1000
9,"C=C[C@@H]1C[C@]1(NC(=O)[C@@H]1C[C@@H](Oc2cc(-c3ccccc3)nc3cc(OC)ccc23)CN1C(=O)C(CC(=O)N1CCCCC1)C(C)(C)C)C(=O)NS(=O)(=O)C1CC1 (stereo partly drawn) [Compound 55, (2S,4R)-1-(2-tert-butyl-4-oxo-4-(piperidin-1-yl)butanoyl)-N-((1R,2S)-1-(cyclopropyl-sulfonylcarbamoyl)-2-vinylcyclopropyl)-4-(7-methoxy-2-phenylquinolin-4-yloxy)pyrrolidine-2-carboxamide]",< 1000
10,"C=C[C@H]1C[C@]1(NC(=O)[C@@H]1C[C@@H](Oc2cc(-c3ccccc3)nc3cc(OC)ccc23)CN1C(=O)C[C@@H](CC1CCCC1)C(=O)N1CCCCC1)C(=O)NS(=O)(=O)C1CC1 [Compound 56, (2S,4R)-1-((R)-3-(cyclopentyl-methyl)-4-oxo-4-(piperidin-1-yl)butanoyl)-N-((1R,2R)-1-(cyclopropyl-sulfonylcarbamoyl)-2-vinylcyclopropyl)-4-(7-methoxy-2-phenylquinolin-4-yloxy)pyrrolidine-2-carboxamide]",1000 to 10000
11,"C=C[C@H]1C[C@]1(NC(=O)[C@@H]1C[C@@H](Oc2cc(-c3ccccc3)nc3cc(OC)ccc23)CN1C(=O)[C@@H](CC(=O)N1CCCCC1)CC1CCCC1)C(=O)NS(=O)(=O)C1CC1 [Compound 57, (2S,4R)-1-((R)-2-(cyclopentylmethyl)-4-oxo-4-(piperidin-1-yl)butanoyl)-N-((1R,2R)-1-(cyclopropyl-sulfonylcarbamoyl)-2-vinylcyclopropyl)-4-(7-methoxy-2-phenylquinolin-4-yloxy)pyrrolidine-2-carboxamide]",< 1000
12,"C=C[C@H]1C[C@]1(NC(=O)[C@@H]1C[C@@H](Oc2cc(-c3ccccc3)nc3cc(OC)ccc23)CN1C(=O)[C@@H](CC(=O)N1CCCCC1)C(C)C)C(=O)NS(=O)(=O)C1CC1 [Compound 58, (2S,4R)-N-((1R,2R)-1-(cyclopropyl-sulfonylcarbamoyl)-2-vinylcyclopropyl)-1-((S)-2-isopropyl-4-oxo-4-(piperidin-1-yl)butanoyl)-4-(7-methoxy-2-phenylquinolin-4-yloxy)pyrrolidine-2-carboxamide]",< 1000
13,"C=CC1C[C@]1(NC(=O)[C@@H]1C[C@@H](Oc2cc(-c3ccccc3)nc3cc(OC)ccc23)CN1C(=O)[C@@H](CC(=O)N1CCCCC1)c1ccccc1)C(=O)NS(=O)(=O)C1CC1 (stereo partly drawn) [Compound 59, (2S,4R)-N-((1R,2R)-1-(cyclopropyl-sulfonylcarbamoyl)-2-vinylcyclopropyl)-4-(7-methoxy-2-phenylquinolin-4-yloxy)-1-((S)-4-oxo-2-phenyl-4-(piperidin-1-yl)butanoyl)pyr-rolidine-2-carboxamide]",< 1000
14,"C=C[C@H]1C[C@]1(NC(=O)[C@@H]1C[C@@H](Oc2cc(-c3ccccc3)nc3cc(OC)ccc23)CN1C(=O)[C@H](CC(=O)N1CCCCC1)CC1CCCCC1)C(=O)NS(=O)(=O)C1CC1 [Compound 60, (2S,4R)-1-((S)-2-(cyclohexylmethyl)-4-oxo-4-(piperidin-1-yl)butanoyl)-N-((1R,2R)-1-(cyclopropyl-sulfonylcarbamoyl)-2-vinylcyclopropyl)-4-(7-methoxy-2-phenylquinolin-4-yloxy)pyrrolidine-2-carboxamide]",1000 to 10000
15,"C=C[C@@H]1C[C@]1(NC(=O)[C@@H]1C[C@@H](OC(=O)Nc2ccc(-c3ccccc3)cc2)CN1C(=O)[C@@H](CC(=O)N1CCCCC1)C(C)(C)C)C(=O)NS(=O)(=O)C1CC1 [Compound 61, (3R,5S)-1-((S)-2-tert-butyl-4-oxo-4-(piperidin-1-yl)butanoyl)-5-((1R,2S)-1-(cyclopropyl-sulfonylcarbamoyl)-2-vinylcyclopropyl-carbamoyl)pyrrolidin-3-yl biphenyl-4-ylcarbamate]",1000 to 10000
